# Experimental data taken from PMC3525482 (Journal of inorganic biochemistry, 2012).
# Read-outs that look alike come from different tables or passages of the source.
# Columns and labels:
# Recombinant human PHD2 = Recombinant human PHD2 (Homo sapiens, UniProt Q9GZT9); test: PHD2 dose-response activity assay; assay type: biochemical; details: sub-saturating αKG
# Recombinant human FIH-1 = Recombinant human FIH-1 (Homo sapiens, UniProt Q9NWT6); test: FIH dose-response activity assay; assay type: biochemical
# Chain of Recombinant human FIH-1 (Q9NWT6 whole entry): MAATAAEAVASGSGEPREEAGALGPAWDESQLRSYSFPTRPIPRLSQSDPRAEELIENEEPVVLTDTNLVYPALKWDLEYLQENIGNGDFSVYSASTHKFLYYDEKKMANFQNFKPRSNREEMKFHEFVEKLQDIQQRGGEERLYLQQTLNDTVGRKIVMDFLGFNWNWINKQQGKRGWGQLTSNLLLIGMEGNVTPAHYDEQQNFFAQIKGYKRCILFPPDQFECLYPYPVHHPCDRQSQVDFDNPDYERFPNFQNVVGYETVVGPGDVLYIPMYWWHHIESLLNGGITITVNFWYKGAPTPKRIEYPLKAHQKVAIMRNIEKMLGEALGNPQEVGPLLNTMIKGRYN
# FIH [1] = details: read-out: KM (Michaelis constant for αKG), FIH; cited from earlier work
# FIH [2] = details: cited from earlier work
# Chain of Recombinant human PHD2 (Q9GZT9 177-426): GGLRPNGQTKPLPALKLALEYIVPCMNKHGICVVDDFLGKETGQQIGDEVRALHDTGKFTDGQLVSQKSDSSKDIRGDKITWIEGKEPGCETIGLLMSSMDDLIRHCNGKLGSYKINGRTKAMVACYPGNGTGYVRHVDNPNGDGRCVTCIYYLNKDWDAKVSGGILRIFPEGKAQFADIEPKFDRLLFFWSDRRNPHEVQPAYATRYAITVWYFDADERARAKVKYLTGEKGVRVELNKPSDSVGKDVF
Compound,IC50 (Recombinant human FIH-1) [µM],other results
"Cc1ccc(C#N)c(=O)[nH]1 [Compound 1, 3-Cyano-6-methyl-2(H) pyridinone]",,"inhibition toward PHD2 (Recombinant human PHD2): no inhibition; inhibition toward FIH (Recombinant human FIH-1; dose response, sub-saturating αKG): no inhibition; IC50 (Recombinant human FIH-1; read-out: FIH IC50, 10 µM αKG, 0.5 µM FIH, 50 mM HEPES pH 7.50, 37.0 °C): > 1000 µM"
"Oc1cccnc1O [Compound 3, 2,3-Dihydroxypyridine]",75,
"O=c1cc(CO)occ1O [Compound 4, 5-Hydroxy-2-hydroxymethyl-4-pyrone]",170,
"O=C(O)c1cc(=O)c(O)co1 [Compound 5, 5-Hydroxy-4-oxo-4H-pyran-2-carboxylic acid]",50,
"Cc1occc(=O)c1O [Compound 6, 3-Hydroxy-2-methyl-4-pyrone]",70,
"Cc1c(O)c(=O)ccn1C [Compound 7, 3-Hydroxy-1,2-dimethyl-4(1H)-pyridinone]",30,
"O=[N+]([O-])c1ccc(O)c(O)c1 [Compound 8, 4-Nitrocatechol]",10,
"Cc1ccc(O)c(O)c1 [Compound 9, 4-Methylcatechol]",50,
"CC(C)(C)c1ccc(O)c(O)c1 [Compound 10, 4-tert-Butylcatechol]",120,
"O=C(O)CCC(=O)C(=O)O [αKG, alpha-ketoglutarate]",,Km (FIH [1]): 22 ± 6 µM
N-oxalyl-D-phenylalanine,,Ki (FIH [2]): 90 µM
